pIC50: −log10 of the molar value.

T1 sequence (Q15858 whole entry): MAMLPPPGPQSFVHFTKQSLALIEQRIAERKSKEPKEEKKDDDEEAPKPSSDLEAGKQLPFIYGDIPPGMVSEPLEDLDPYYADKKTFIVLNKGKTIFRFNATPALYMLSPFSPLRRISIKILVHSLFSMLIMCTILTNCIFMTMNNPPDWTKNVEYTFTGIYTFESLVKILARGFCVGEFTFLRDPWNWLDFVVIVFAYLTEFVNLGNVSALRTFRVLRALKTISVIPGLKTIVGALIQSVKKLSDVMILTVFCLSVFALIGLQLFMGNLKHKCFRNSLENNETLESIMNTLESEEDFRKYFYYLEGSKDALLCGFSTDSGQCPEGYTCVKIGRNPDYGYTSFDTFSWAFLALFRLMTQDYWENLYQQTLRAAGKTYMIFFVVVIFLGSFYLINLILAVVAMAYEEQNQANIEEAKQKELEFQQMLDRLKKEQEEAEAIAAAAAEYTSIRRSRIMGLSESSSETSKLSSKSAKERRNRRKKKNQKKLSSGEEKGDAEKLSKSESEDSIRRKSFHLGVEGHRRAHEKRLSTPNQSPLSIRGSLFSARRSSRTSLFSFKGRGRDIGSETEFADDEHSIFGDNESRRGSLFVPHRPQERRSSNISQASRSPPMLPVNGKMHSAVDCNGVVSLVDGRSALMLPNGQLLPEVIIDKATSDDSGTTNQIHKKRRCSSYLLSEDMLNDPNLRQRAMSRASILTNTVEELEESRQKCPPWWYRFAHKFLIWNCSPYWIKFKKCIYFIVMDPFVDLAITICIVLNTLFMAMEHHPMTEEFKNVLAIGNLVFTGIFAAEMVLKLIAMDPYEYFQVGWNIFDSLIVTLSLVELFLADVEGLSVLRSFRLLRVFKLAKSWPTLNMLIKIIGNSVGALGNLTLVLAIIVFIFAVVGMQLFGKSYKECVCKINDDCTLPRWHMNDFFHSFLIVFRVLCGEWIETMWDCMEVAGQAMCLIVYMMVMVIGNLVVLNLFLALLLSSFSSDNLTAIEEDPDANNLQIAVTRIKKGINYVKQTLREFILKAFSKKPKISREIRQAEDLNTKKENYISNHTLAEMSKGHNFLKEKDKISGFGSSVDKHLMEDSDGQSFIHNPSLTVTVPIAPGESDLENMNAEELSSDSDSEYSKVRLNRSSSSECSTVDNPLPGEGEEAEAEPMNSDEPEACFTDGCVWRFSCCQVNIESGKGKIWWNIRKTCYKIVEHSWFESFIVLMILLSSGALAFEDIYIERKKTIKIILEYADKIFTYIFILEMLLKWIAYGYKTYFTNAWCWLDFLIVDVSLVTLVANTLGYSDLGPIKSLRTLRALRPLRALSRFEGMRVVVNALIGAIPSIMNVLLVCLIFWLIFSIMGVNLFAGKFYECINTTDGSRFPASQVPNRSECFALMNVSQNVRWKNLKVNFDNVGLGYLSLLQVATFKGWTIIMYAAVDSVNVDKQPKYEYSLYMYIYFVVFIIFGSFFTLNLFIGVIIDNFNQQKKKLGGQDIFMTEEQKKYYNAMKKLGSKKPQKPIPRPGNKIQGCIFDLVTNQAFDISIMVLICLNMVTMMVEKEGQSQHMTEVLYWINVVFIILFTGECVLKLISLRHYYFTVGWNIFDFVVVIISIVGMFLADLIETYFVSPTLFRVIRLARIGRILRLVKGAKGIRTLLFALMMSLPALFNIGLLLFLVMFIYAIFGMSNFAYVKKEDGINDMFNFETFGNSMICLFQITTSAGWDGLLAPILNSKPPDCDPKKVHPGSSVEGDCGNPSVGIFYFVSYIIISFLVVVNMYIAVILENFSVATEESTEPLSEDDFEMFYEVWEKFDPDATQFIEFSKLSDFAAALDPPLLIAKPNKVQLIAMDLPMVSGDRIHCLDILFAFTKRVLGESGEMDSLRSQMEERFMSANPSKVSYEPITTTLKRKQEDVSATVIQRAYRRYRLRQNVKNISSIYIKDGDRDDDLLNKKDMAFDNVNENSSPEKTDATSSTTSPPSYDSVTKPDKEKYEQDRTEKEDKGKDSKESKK

The experiment addresses T1, human Nav 1.7 channels stably expressed in HEK 293 cells (Homo sapiens, UniProt Q15858).
T1 construct: expressed in transfected cells; host or cells: HEK 293
In words: IonWorks Quattro automated patch-clamp, inactivated state block of Nav 1.7. To be noted: double-pulse protocol, HEK 293 cells held at -100 mV, read-out: potency for the Nav 1.7 sodium ion channel (IC50, IonWorks). In kind it is cell-based. How it is done:
IonWorks® Experimental Procedure
Compounds were tested on human Nav 1.7 and Nav 1.5 channels stably expressed in HEK 293 cells. Sodium current measurements on IonWorks Quattro: An automated patch-clamp assay on the IonWorks Quattro platform (Molecular Devices) was used to measure state-dependent inhibition of human Nav 1.7 and Nav 1.5 channels. Cells were sealed on a planar substrate using the Population Patch Plate (PPC) technology. Electrical access was obtained using both nystatin and amphotericin. A double-pulse protocol was used for the determination of IC50 values for inactivated state block. Nav 1.7 and Nav 1.5 expressing cells were voltage clamped at −100 mV and −110 mV, respectively. A depolarizing prepulse to −10 mV (Nav 1.7) or −30 mV (Nav 1.5) for 1000 ms followed by a 10 ms repolarization to ˜100 mV (Nav1.7) or −110 mV (Nav 1.5) was given to generate fractional channel inactivation of ˜50%, followed by a 10 ms test pulse to −10 mV (Nav 1.7) or −30 mV (Nav 1.5) to measure peak current in control conditions and after compound addition. The following recording solutions were used (mM). External: 150 NaCl, 2 CaCl2, 5 KCl, 1 Mg Cl2, 10 HEPES, 12 Dextrose; internal: 120 CsF, 30 CsCl, 10 EGTA, 5 HEPES, 5 NaF, 2 MgCl2.
For all electrophysiology experiments, offline analysis was used to determine percent inhibition as a function of drug concentration. IC50 values were determined by fitting to the Hill equation.
The various compounds in Examples 1 through 4 and Tables 1 through 3 exemplified above were assayed for activity and selectivity using the foregoing IonWorks® technique. The results are reported in the following paragraph in a format expressing the identification of the compound with reference Example and compound (e.g. Ex 1-9 is Example 1, compound 9) followed by the observed potency in nM and the ratio of Nav1.7 potency: Nav1.5 potency as described here. Thus, Ex1-9: 1.7=65/ratio=641 identifies compound Example 1, compound 9 as having 65 nM potency for the Nav 1.7 sodium ion channel (as measured by IonWorks®) and a ratio of 641 Nav 1.7: Nav 1.5 potency, determined by IonWorks® measurement.
In general terms: The patch-clamp technique gives a direct electrical read-out from membranes.
For orientation: pIC50 means the IC50 on a negative log10 scale, so that one unit is a factor of ten. With `O=S(=O)(Nc1nccs1)c1cc(Cl)c(NCCCCNCC2Cc3ccccc3CN2)cc1F` (single isomer, unassigned) [Ex 1-19, (S or R)-5-chloro-2-fluoro-4-({4-[(1,2,3,4-tetrahydroisoquinolin-3-ylmethyl)amino]butyl}amino)-N-1,3-thiazol-2-ylbenzenesulfonamide], the negative-log IC50 (pIC50) was 8.00.

Take `O=S(=O)(Nc1nccs1)c1cc(Cl)c(NCCCCNCC2NCc3ccccc32)cc1F` (single isomer, unassigned) [Ex 2-4 Enantiomer A, (R or S)-5-chloro-2-fluoro-4-((4-((isoindolin-1-ylmethyl)amino)butyl)amino)-N-(thiazol-2-yl)benzenesulfonamide]: the negative logarithm of the IC50 (pIC50) was 7.54.

In the case of `O=S(=O)(Nc1nccs1)c1cc(Cl)c(NCCCCNCC2NCc3ccccc32)cc1F` (single isomer, unassigned) [Ex 2-4 Enantiomer B, (S or R)-5-chloro-2-fluoro-4-((4-((isoindolin-1-ylmethyl)amino)butyl)amino)-N-(thiazol-2-yl)benzenesulfonamide], the negative logarithm of the IC50 (pIC50) is 7.68.

On to `NCC1CCN1CCCCNc1cc(F)c(S(=O)(=O)Nc2nccs2)cc1Cl` (single isomer, unassigned) [Ex 16-52, (R or S)-4-({4-[2-(aminomethyl)-azetidin-1-yl]butyl}amino)-5-chloro-2-fluoro-N-1,3-thiazol-2-ylbenzene-sulfonamide], for which the negative-log IC50 (pIC50) was 7.51.

Regarding `O=S(=O)(Nc1nccs1)c1cc(Cl)c(NCCCCN[C@H]2CN[C@H](c3ccccc3)C2)cc1F` [Ex 1-8, 5-chloro-2-fluoro-4-[(4-{[(3R,5S)-5-phenylpyrrolidin-3-yl]amino}butyl)amino]-N-1,3-thiazol-2-ylbenzenesulfonamide], the pIC50 was 7.96.

On to `O=S(=O)(Nc1nccs1)c1cc(Cl)c(NCCCCNCC2Cc3ccccc3CN2)cc1F` (stereo not drawn) [Ex 1-9, 5-chloro-2-fluoro-4-({4-[(1,2,3,4-tetrahydroisoquinolin-3-ylmethyl)amino]butyl}amino)-N-1,3-thiazol-2-ylbenzenesulfonamide], for which the pIC50 was 7.89.

Consider `N[C@H]1CCN(CCCCNc2cc(F)c(S(=O)(=O)Nc3nccs3)cc2Cl)C1` [Ex 1-11, 4-({4-[(3S)-3-aminopyrrolidin-1-yl]butyl}amino)-5-chloro-2-fluoro-N-1,3-thiazol-2-ylbenzenesulfonamide], for which the negative logarithm of the IC50 (pIC50) was 7.72.

In the case of `O=S(=O)(Nc1nccs1)c1cc(Cl)c(NCCCCN2CCCC23CCNC3)cc1F` (stereo not drawn) [Ex 1-12, 5-chloro-4-{[4-(1,7-diazaspiro[4.4]non-1-yl)butyl]amino}-2-fluoro-N-1,3-thiazol-2-ylbenzenesulfonamide], the pIC50 is 7.18.

As to `O=S(=O)(Nc1nccs1)c1cc(Cl)c(NCCCCN2CC3CCCNC3C2)cc1F` (stereo not drawn) [Ex 1-13, 5-chloro-2-fluoro-4-{[4-(octahydro-6H-pyrrolo[3,4-b]pyridin-6-yl)butyl]amino}-N-1,3-thiazol-2-ylbenzenesulfonamide], the pIC50 was 7.80.

For the compound `O=S(=O)(Nc1nccs1)c1cc(Cl)c(NCCCCN2CC[C@@H]3CCNC[C@@H]32)cc1F` [Ex 1-21, 5-chloro-2-fluoro-4-({4-[(3a5,7aR)-octahydro-1H-pyrrolo[2,3-c]pyridin-1-yl]butyl}amino)-N-1,3-thiazol-2-ylbenzenesulfonamide], the negative logarithm of the IC50 (pIC50) is 7.68.

For `C[C@H](CNC1CCOCC1)NCCCCNc1cc(F)c(S(=O)(=O)Nc2nccs2)cc1Cl` [Ex 1-26, 5-chloro-2-fluoro-4-[(4-{[(1R)-1-methyl-2-(tetrahydro-2H-pyran-4-ylamino)ethyl]amino}butyl)amino]-N-1,3-thiazol-2-ylbenzenesulfonamide], the pIC50 was 7.52.

In the case of `NCC(NCCCCNc1cc(F)c(S(=O)(=O)Nc2nccs2)cc1Cl)c1ccccc1` (stereo not drawn) [Ex 1-32, 4-({4-[(2-amino-1-phenylethyl)amino]butyl}amino)-5-chloro-2-fluoro-N-1,3-thiazol-2-ylbenzenesulfonamide], the negative logarithm of the IC50 (pIC50) is 7.80.

With `O=S(=O)(Nc1nccs1)c1cc(Cl)c(NCCCCN2CCC3(CCNC3)C2)cc1F` (stereo not drawn) [Ex 1-38, 5-chloro-4-{[4-(2,7-diazaspiro[4.4]non-2-yl)butyl]amino}-2-fluoro-N-1,3-thiazol-2-ylbenzenesulfonamide], the negative-log IC50 (pIC50) was 7.36.

Consider `O=S(=O)(Nc1nccs1)c1cc(Cl)c(NCCCCN2CCC23CCCNC3)cc1F` (stereo not drawn) [Ex 1-40, 5-chloro-4-{[4-(1,6-diazaspiro[3.5]non-1-yl)-butyl]amino}-2-fluoro-N-1,3-thiazol-2-yl-benzenesulfonamide], for which the pIC50 was 6.96.

Turning to `NC1C2CN(CCCCNc3cc(F)c(S(=O)(=O)Nc4nccs4)cc3Cl)CC12` (stereo not drawn) [Ex 1-42, 4-{[4-(6-amino-3-azabicyclo[3.1.0]hex-3-yl)butyl]amino}-5-chloro-2-fluoro-N-1,3-thiazol-2-ylbenzenesulfonamide], the pIC50 was 7.10.

Consider `NC1CCCN(CCCCNc2cc(F)c(S(=O)(=O)Nc3nccs3)cc2Cl)CC1` (stereo not drawn) [Ex 1-43, 4-{[4-(4-aminoazepan-1-yl)butyl]amino}-5-chloro-2-fluoro-N-1,3-thiazol-2-ylbenzenesulfonamide], for which the negative logarithm of the IC50 (pIC50) is 7.51.

Turning to `NC1CN(CCCCNc2cc(F)c(S(=O)(=O)Nc3nccs3)cc2Cl)C1` [Ex 1-44, 4-{[4-(3-aminoazetidin-1-yl)butyl]amino}-5-chloro-2-fluoro-N-1,3-thiazol-2-ylbenzenesulfonamide], the negative-log IC50 (pIC50) was 7.54.

`NCC1(c2ccccc2)CCN(CCCCNc2cc(F)c(S(=O)(=O)Nc3nccs3)cc2Cl)CC1` [Ex 1-45, 4-({4-[4-(aminomethyl)-4-phenylpiperidin-1-yl]butyl}amino)-5-chloro-2-fluoro-N-1,3-thiazol-2-ylbenzenesulfonamide]: the pIC50 is 6.96.

Take `NCC1CCCN(CCCCNc2cc(F)c(S(=O)(=O)Nc3nccs3)cc2Cl)C1` (stereo not drawn) [Ex 1-46, 4-({4-[3-(aminomethyl)piperidin-1-yl]butyl}amino)-5-chloro-2-fluoro-N-1,3-thiazol-2-ylbenzenesulfonamide]: the pIC50 is 7.52.

In the case of `NCc1ccccc1CNCCCCNc1cc(F)c(S(=O)(=O)Nc2nccs2)cc1Cl` [Ex 3-4, 4-((4-((2-(aminomethyl)benzyl)amino)butyl)amino)-5-chloro-2-fluoro-N-(thiazol-2-yl)benzenesulfonamide], the negative-log IC50 (pIC50) was 7.68.

Take `O=S(=O)(Nc1ncc(F)s1)c1ccc(NCCCCNC[C@@H]2CCCN2)c(Cl)c1` [Ex 7-13, 3-chloro-N-(5-fluoro-1,3-thiazol-2-yl)-4-[(4-{[(2S)-pyrrolidin-2-ylmethyl]amino}butyl)amino]benzenesulfonamide]: the pIC50 is 7.80.

On to `O=S(=O)(Nc1nccs1)c1cc(Cl)c(NCCCCNC[C@@H]2CC[C@H](c3ccccc3)N2)cc1F` [Ex 8-3, 5-chloro-2-fluoro-4-{[4-({[(2S,5R)-5-phenylpyrrolidin-2-yl]methyl}-amino)butyl]-amino}-N-1,3-thiazol-2-yl-benzenesulfonamide], for which the pIC50 is 7.89.

In the case of `O=S(=O)(Nc1nccs1)c1cc(Cl)c(NCCCCNC[C@H]2NCC[C@@H]2c2ccccc2)cc1F` [Ex 8-6, 5-chloro-2-fluoro-4-{[4-({[(2S,3R)-3-phenylpyrrolidin-2-yl]-methyl}amino)butyl]amino}-N-1,3-thiazol-2-ylbenzenesulfonamide], the negative-log IC50 (pIC50) is 7.68.

For `O=S(=O)(Nc1nccs1)c1cc(Cl)c(NCCCCNC[C@@H]2C[C@H](c3ccccc3)CN2)cc1F` [Ex 8-13, 5-chloro-2-fluoro-4-{[4-({[(2S,4R)-4-phenylpyrrolidin-2-yl]-methyl}amino)-butyl]amino}-N-1,3-thiazol-2-yl-benzenesulfonamide], the pIC50 was 7.80.

As for `O=S(=O)(Nc1nccs1)c1cc(Cl)c(NCCCCNC[C@H]2CC(F)(F)CN2)cc1F` [Ex 8-15, 5-chloro-4-{[4-({[(2R)-4,4-difluoropyrrolidin-2-yl]-methyl}amino)butyl]amino}-2-fluoro-N-1,3-thiazol-2-yl-benzenesulfonamide], the pIC50 was 7.18.

In the case of `O=S(=O)(Nc1cccc(F)n1)c1cc(Cl)c(NCCCCCNC[C@@H]2CCCN2)cc1F` [Ex 9-2, (S)-5-chloro-2-fluoro-N-(6-fluoropyridin-2-yl)-4-((5-((pyrrolidin-2-ylmethyl)amino)pentyl)amino)benzenesulfonamide], the negative-log IC50 (pIC50) is 7.54.

In the case of `O=S(=O)(Nc1nccs1)c1cc(Cl)c(NCCCCCNCC2CCCCN2)cc1F` (stereo not drawn) [Ex 9-03, 5-chloro-2-fluoro-4-({5-[(piperidin-2-ylmethyl)-amino]pentyl}amino)-N-1,3-thiazol-2-yl-benzenesulfonamide], the negative-log IC50 (pIC50) is 7.72.
